Data from patent US20210353579A1, “HIGH PENETRATION COMPOSITIONS AND USES THEREOF” (Techfields Pharma Co., Ltd., priority 2006, published 2021).
Like-named read-outs stand apart in the source and are kept apart here.

How the values were obtained:
[1] = Plasma levels after transdermal administration to hairless mice; conditions: mouse, in vivo, po
human skin tissue [2] = conditions: pH 7.4
[3] = Plasma levels after transdermal administration to hairless mice; format: in vivo; conditions: for Peak plasma concentration of parent compound after prodrug compound / t, time to peak plasma level of parent compound after prodrug compound: transdermal, 20% in 1 mL isopropanol
Protocol: Tested compounds (20% solution or suspension in 1 mL isopropanol) are administered transdermally to the skin of intact hairless mice. The plasma levels of the parent compounds are determined by HPLC.

human skin tissue [4] = assay: In vitro penetration rate through human skin, modified Franz cells; conditions: Franz cell; for In vitro penetration rate (apparent flux), prodrug compounds: 20% solution in 0.2 M phosphate buffer pH 7.4, human skin
in vivo = conditions: rat
Protocol: The acute toxicity of the prodrug compounds and parent compounds are measured by LD50 of rat.

[5] = Solubility in water / aqueous solubility of HPPs and parent drugs; conditions: medium not given
rats = assay: Antipyretic activity, E. coli suspension as pyrogen; format: in vivo; conditions: 100 mg/kg transdermally; in °C (unit assumed)
Protocol: Rats are administered with sterilized E. coli suspension as a pyrogen. Each group of rats are administered with a prodrug compounds or parent compounds at a dosage specified below. The prodrug compounds are administered either orally or transdermally. The parent compounds are administered orally.

[6] = system: Human breast cancer cells (BCAP-37); assay: Human breast cancer xenograft in nude mice, topical
Protocol: Human breast cancer cells (BCAP-37, 2-3 mm^3 of tumor tissue was used in each mouse) are subcutaneously xenografted into the front leg of nude mice (BALB, 12 groups, 7 mice each group). […] Then 30 μl of 5% (equal to 1.5 mg of the HPPs) diethylaminoethyl acetylsalicylate.acetylsalicylic acid salt (P-1, in acetone); 1-piperidinepropyl 2[(2,6-dichlorophenyl)amino]benzene acetate.AcOH (P-2, in water), 1-pyrrolidinepropyl 2-(3-benzoylphenyl) propionate.AcOH (P-3, in water), 4-piperidinemethyl 2-(3-phenoxyphenyl)propionate.AcOH (P-4, in water), 3-piperidinemethyl 2-(ρ-isobutylphenyl) propionate.AcOH (P-5, in water), diethylaminoethyl 1-(p-chlorobenzoyl)-5-methoxy-2-methylindole 3-acetate.AcOH (P-11, in water), 2-(4-morpholinyl)ethyl (Z)-5-fluoro-2-methyl-1-[(4-methylsulfinyl) phenylmethylene]-1H-indene-3-acetate.AcOH (P-12, in water), diethylaminoethyl

mice = assay: Analgesic activity, acetic acid writhing; format: in vivo; conditions: 100 mg/kg transdermally, 30 min before acetic acid
Protocol: The prodrug compounds are administered either transdermally or orally. The parent compounds are administered orally. The number of writhing that occurred when mice are administered the acetic acid solution are counted, and the rate of inhibition based on the control group which was not pretreated with any test compounds is calculated. […] The A group is the control group.

Chinese white rabbits = assay: Malassezia-induced lesions similar to psoriasis; format: in vivo, rabbit; conditions: 5% aqueous solution twice per day, 10 days after application
Description: Heavy suspensions of Malassezia [Rosenberg, E. W., et al., Mycopathologia, 72, 147-154 (1980)] were applied to the shaved skin on the backs of the Chinese white rabbits (n=4×6) twice (at 7 am and 7 pm) per day for 2 weeks, lesions similar to psoriasis resulted.

[7] = system: Human colon cancer cells (LS174J); assay: Human colon cancer xenograft in nude mice, topical; conditions: day 30, about 30 μl of 5% solution (1.5 mg) topically applied
Description: Human colon cancer cells (LS174J, 2-3 mm^3 of tumor tissue was used in each mouse) are subcutaneously xenografted into the front leg of nude mice (BALB).
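Wherever LD50 is given: acute toxicity in rats expressed as LD50, determined for both prodrugs and their parent compounds.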
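Wherever LD50 of HPP is given: acute toxicity in rats expressed as LD50, determined for both prodrugs and their parent compounds.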

Compound	t, time to peak plasma level after parent compound [1] [h]	In vitro penetration rate (apparent flux), parent compounds (human skin tissue [2]) [μg/cm^2/h]	Peak plasma concentration after parent compound ([3]; mouse, in vivo) [mg/L]	In vitro penetration rate (apparent flux), prodrug compounds (human skin tissue [4]) [μg/cm^2/h]	body temperature, t = 0 min (rats)	body temperature, t = 90 min (rats)	body temperature, t = 180 min (rats)	body temperature, t = 270 min (rats)	Peak plasma concentration of parent compound after prodrug compound ([3]; hairless mice) [mg/L]	t, time to peak plasma level of parent compound after prodrug compound ([3]; hairless mice) [min]	% (rate of writhing inhibition) (mice) [%]	No. of Writhing (mice)	other results
Nc1c(CC(=O)O)cccc1C(=O)c1ccc(Br)cc1 [Bromofenac, bromofenac]	1 to 2	10	0.1	–	–	–	–	–	–	–	–	–	–
O=C(O)CC(O)c1ccc(-c2ccc(Cl)cc2)o1 (stereo not drawn) [Orpanoxin, orpanoxin]	2 to 4	30	10	–	–	–	–	–	–	–	–	–	–
CN1C(C(=O)Nc2nccs2)=C(O)c2ccccc2S1(=O)=O [Sudoxiam, sudoxiam]	2 to 4	<1	0.1	–	–	–	–	–	–	–	–	–	–
CC1=C(CC(=O)O)c2cc(F)ccc2/C1=C\c1ccc([S+](C)[O-])cc1 (stereo not drawn) [Sulindac, sulindac, reference compound]	–	–	–	–	–	–	–	–	–	–	–	–	In vitro penetration rate (apparent flux), parent compounds (human skin tissue [4]; 20% suspension in 0.2 M phosphate buffer pH 7.4, human skin, detection limit 1): 10 μg/cm^2/h; t, time to peak plasma level after parent compound ([3]; parent compound administered (time when taken orally)): 1 to 2 h; Peak plasma concentration after parent compound ([3]; parent compound administered, hairless mice): 0.1 mg/L; LD50 (in vivo): 260 mg/kg
CC(=O)O.CCN(CC)CCOC(=O)Cc1c(C)n(C(=O)c2ccc(Cl)cc2)c2ccc(OC)cc12 [diethylaminoethyl 1-(p-chlorobenzoyl)-5-methoxy-2-methylindole 3-acetate.AcOH]	–	–	–	1100	37.35 ± 0.06	36.91 ± 0.05	36.85 ± 0.08	36.79 ± 0.07	20	50	55	15.6	LD50 of HPP (rat; rats): 100 mg/kg; Solubility of HPP [5]: >250 mg/mL; Tumor size ([6]; day 42, 30 μl of 5% (1.5 mg) topically every 8 hours from day 14, control 800 ± 100): 210 ± 100 mm^3; Mouse weight ([6]; mouse, in vivo): 21 ± 2 g
CC(=O)O.CCN(CC)CCOC(=O)Cc1ccc(C(=O)c2ccc(C)cc2)n1C [diethylaminoethyl 1-methyl-5-(4-methylbenzoyl)-1H-pyrrole-2-acetate.AcOH]	–	–	–	1000	37.27 ± 0.06	36.71 ± 0.05	36.65 ± 0.08	36.59 ± 0.07	20	50	51	17.1	LD50 of HPP (rat; rat, in vivo): 600 mg/kg; lesions similar to psoriasis (Chinese white rabbits): the lesions were resolved; Mouse weight [7]: 21 ± 2 g; Tumor size [7]: 610 ± 200 mm^3
